Data as given in patent US4341786A, “Pharmaceutical compositions and method of producing central alpha1 agonist activity utilizing octahydrobenzo[f]quinoline compounds” (SmithKline Corporation, priority 1981, dated 1982).
Where a name gives a salt, the structure may show the parent alone.

Target: postjunctional alpha1 receptors
Assay: postjunctional alpha1 agonist activity (EC50), isolated segment of rabbit ear artery
Conditions: smooth muscle tension, dose producing 50% of the maximum response (norepinephrine)
Source text: The assay procedure is described by Steinsland et al. J. Pharm. Exp. Ther. 184:346-356, 1973. Briefly, this test comprises sacrificing a white rabbit and removing the central ear artery. The artery is cannulated at both ends and placed in a perfusion chamber. The artery is simultaneously perfused intraluminally and superfused extraluminally with Krebs solution. The compound to be tested can be administered by means of either the intraluminal or extraluminal flow. The sympathetic nerve is excited at four minute intervals by field stimulation. The selective alpha1 agonist activity is measured as the ability to increase perfusion pressure (mm Hg.) without inhibiting response to sympathetic nerve stimulation.
A quantitation of postjunctional alpha1 agonist activity (EC50) is determined for compounds showing activity in the above test. This is accomplished by employing an isolated segment of rabbit ear artery. The segment is mounted in a chamber superfused with oxygenated Krebs solution. The segment is suspended between two tungsten wires, one attached to the chamber, the other to a force-displacement transducer so that smooth muscle tension can be measured directly. Before administration of the test drug, norepinephrine is administered in increasing concentration (10^-8 M to 3×10^-6 M) to determine maximum response of the artery. […]

`COc1ccc(OC)c2c1CCC1NCCCC21` (stereo not shown) [7,10-dimethoxy-1,2,3,4,4a,5,6,10-b-octahydro-benzo[f]quinoline hydrochloride] was tested. Which EC50 did it give?
The EC50 was 0.19 µM.
